Measurements reported in patent US9839627B2, “Methods of treating fragile X associated disorders, ADHD, and autism spectrum disorder” (Neurovance, Inc., priority 2013, dated 2017).

Legend:
individuals with FXS = settings: reported trials; failures due to aggravation of irritable, moody/perseverative and aggressive behaviors; cited from earlier work
[1] = biological target: T1, monoamine oxidase A (MAO A) (Homo sapiens, UniProt P21397); assay: metabolic pathway
T1 sequence (P21397 1-527): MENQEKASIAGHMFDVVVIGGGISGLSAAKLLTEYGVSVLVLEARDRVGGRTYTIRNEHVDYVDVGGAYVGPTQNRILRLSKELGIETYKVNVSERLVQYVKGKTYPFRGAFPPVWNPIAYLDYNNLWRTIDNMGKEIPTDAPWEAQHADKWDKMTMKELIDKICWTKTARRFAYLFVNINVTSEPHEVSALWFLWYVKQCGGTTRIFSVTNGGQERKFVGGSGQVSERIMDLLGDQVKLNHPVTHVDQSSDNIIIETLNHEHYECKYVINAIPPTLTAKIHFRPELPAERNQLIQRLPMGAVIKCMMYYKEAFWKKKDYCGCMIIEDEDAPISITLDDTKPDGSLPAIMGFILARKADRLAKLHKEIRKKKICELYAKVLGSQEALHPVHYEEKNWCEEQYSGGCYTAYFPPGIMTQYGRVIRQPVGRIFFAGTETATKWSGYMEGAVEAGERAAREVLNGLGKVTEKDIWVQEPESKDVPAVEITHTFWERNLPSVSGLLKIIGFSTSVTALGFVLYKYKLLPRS

[2] = biological target: norepinephrine reuptake (NE) (Homo sapiens, UniProt P23975); assay: norepinephrine reuptake inhibition; format: biochemical; settings: unbalanced triple reuptake inhibitor; compared with DA and 5-HT reuptake
[3] = biological target: serotonin reuptake (5-HT) (Homo sapiens, UniProt P31645); assay: serotonin reuptake inhibition; format: biochemical; settings: fraction of the potency towards NE reuptake
dopamine reuptake (DA) = dopamine reuptake (DA) (Homo sapiens, UniProt Q01959); assay: dopamine reuptake inhibition; format: biochemical; settings: fraction of the potency towards NE reuptake
Chain of dopamine reuptake (DA) (Q01959 whole entry): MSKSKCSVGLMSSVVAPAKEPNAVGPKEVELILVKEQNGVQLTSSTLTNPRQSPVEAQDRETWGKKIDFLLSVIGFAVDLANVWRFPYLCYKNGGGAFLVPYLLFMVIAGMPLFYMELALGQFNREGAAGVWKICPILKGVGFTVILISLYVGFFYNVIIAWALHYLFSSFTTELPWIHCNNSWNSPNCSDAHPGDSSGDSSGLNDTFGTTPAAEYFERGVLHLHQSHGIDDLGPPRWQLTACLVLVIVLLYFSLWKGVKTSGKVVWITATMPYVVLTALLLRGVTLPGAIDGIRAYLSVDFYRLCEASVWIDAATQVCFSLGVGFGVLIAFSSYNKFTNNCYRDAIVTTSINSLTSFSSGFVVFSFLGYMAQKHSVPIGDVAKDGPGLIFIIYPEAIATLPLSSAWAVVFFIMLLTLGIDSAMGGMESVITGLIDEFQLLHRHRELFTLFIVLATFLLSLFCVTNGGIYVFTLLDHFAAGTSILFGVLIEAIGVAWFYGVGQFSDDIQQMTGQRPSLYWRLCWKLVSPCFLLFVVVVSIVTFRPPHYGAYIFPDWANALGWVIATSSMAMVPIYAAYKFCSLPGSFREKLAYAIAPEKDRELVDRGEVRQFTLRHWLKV

Chain of norepinephrine reuptake (NE) (P23975 whole entry): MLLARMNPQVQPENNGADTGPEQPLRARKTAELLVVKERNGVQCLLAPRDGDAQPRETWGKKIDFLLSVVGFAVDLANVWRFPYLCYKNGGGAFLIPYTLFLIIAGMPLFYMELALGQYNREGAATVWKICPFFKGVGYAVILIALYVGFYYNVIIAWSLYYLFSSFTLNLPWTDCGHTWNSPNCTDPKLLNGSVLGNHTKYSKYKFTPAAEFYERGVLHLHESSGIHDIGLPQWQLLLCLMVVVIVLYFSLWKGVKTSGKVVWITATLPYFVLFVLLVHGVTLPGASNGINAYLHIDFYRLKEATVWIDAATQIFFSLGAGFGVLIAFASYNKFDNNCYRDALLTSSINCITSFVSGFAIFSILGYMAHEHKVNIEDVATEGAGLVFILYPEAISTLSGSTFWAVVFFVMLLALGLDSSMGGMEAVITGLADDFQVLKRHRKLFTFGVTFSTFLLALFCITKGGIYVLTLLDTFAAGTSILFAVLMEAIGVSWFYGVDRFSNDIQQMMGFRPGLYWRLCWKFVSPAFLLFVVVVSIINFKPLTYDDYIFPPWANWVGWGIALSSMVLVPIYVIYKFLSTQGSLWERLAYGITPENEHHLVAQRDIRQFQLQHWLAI
Chain of serotonin reuptake (5-HT) (P31645 whole entry): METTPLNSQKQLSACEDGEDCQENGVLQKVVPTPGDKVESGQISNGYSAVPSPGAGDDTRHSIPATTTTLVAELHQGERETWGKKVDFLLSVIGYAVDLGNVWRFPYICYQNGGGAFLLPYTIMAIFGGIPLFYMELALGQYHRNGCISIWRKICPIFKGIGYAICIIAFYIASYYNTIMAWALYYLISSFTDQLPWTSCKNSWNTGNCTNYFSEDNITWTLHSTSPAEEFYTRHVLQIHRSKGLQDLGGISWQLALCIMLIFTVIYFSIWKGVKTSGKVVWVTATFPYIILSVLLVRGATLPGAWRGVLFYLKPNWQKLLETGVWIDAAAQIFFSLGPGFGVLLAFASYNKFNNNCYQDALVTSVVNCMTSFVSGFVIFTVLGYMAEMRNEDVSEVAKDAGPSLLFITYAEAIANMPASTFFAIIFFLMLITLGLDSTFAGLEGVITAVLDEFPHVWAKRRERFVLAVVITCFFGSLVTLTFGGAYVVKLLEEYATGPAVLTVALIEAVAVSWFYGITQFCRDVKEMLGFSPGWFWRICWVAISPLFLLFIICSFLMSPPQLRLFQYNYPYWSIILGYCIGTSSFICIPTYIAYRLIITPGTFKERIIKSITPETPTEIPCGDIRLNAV

SMILES	outcome of treatment in individuals with FXS (individuals with FXS)	primary route of metabolism [1]	relative potency towards norepinephrine reuptake [2]	potency towards serotonin reuptake relative to norepinephrine reuptake [3]	potency towards dopamine reuptake relative to norepinephrine reuptake (dopamine reuptake (DA))
CNCC[C@@H](Oc1ccccc1C)c1ccccc1 [atomoxetine]	unsuccessful	–	–	–	–
c1ccc2cc([C@]34CNC[C@H]3C4)ccc2c1 [(1R,5S)-1-(naphthalen-2-yl)-3-azabicyclo[3.1.0]hexane]	–	primarily metabolized by monoamine oxidase A (MAO A)	most potency	one-fourteenth	one-sixth
O=C1CCc2ccc(OCCCCN3CCN(c4cccc(Cl)c4Cl)CC3)cc2N1 [Aripiprazole]	some individuals with FXS failed treatment	–	–	–	–
